Reference: patent US20100204295A1, “TREATMENT OF ALLERGIC DISEASE WITH IMMUNOMODULATOR COMPOUNDS” (SCICLONE PHARMACEUTICALS, INC., priority 2007, published 2010)

Experiments:
anti-OvA IgE = assay: Titer of anti-OvA IgE in serum and BAL by solid phase IFA, ovalbumin asthma model; type: in vivo, mice of the Balb/C line; details: for Titer IgE BAL, dilution 1:8, % of average of the control group / Titer IgE of serum, dilution 1:640, % of average of the control group: animals 6 to 8 weeks; for Titer IgE BAL, dilution 1:32, % of average of the control group / Titer IgE of serum, dilution 1:400, % of average of the control group: animals 18 to 20 weeks
From the text: Female, non-pathogenic mice of the Balb/C line (“Pushchtino” laboratory animal breeders) were kept under conditions of an SPF-vivarium at a constant temperature, 12-hour day/night cycle, and received sterile feed and water ad libitum. In two series of experiments, mice from 6-8 weeks and 18-20 weeks of age were used at the beginning of the experiment, respectively.
The animals were immunized twice at 5-day intervals with an ovalbumin solution (Sigma) in an adjuvant based on ammonium sulfate at a dosage of 8 μg per mouse. SCV-07 was administered intra-abdominally in a volume of 200 μL at a dosage of 0.1 or 1.0 μg/kg in PBS once a day from 6 through 11 days after the first immunization. The control group received physiological saline on the same days. Each group comprised 6 to 10 animals. On the 12th, 16th and 20th days after the first immunization, the animals were then placed in a hermetic box, in which an aerosol of 1% ovalbumin solution (OvA) in PBS was generated with an ultrasonic nebulizer LD-207U (Little Doctor) for 1 minute with continuous mixing of air. The duration of exposure of the animals to the aerosol was 15 minutes. Analysis of the severity of experimental allergic asthma was carried out 24 hours after the last aerosol exposure.
The peripheral blood was collected from the retro-orbital sinus. The titer of anti-OvA IgE in the serum and bronchoalveolar lavage was determined with solid phase IFA according to the following scheme. Rat antibodies to murine IgE labeled with biotin (Caltag) were introduced to a 96-well plate for IFA ((Corning Costar) in the dilution recommended by the manufacturer (100 μL/well), incubated for an hour at room temperature and washed. Serum samples or BAL were then introduced in successive dilutions and incubated at room temperature for an hour and washed. OvA was then added, labeled with horseradish peroxidase, incubated on a shaker for an hour at room temperature, washed and the substrate for peroxidase introduced (OPD, Sigma) and incubated for 15 minutes. The reaction was stopped by adding 1 M H2SO4 and the plates were analyzed on a Victor2 spectrophotometer (Wallac) at a wavelength of 450 nm. For quantitative comparison of the titers of the antigen-specific IgE after subtracting the background, we calculated the average optical density in each dilution for samples of the animal control group, and expressed the optical densities in the samples from all animals in the experiment in corresponding dilution as the percentages of the values obtained.

interferon-γ = assay: ConA-induced IFN-γ production by splenocytes after intra-abdominal SCV-07; type: in vivo, mice; details: 1 μg/kg, five daily intra-abdominal injections; ConA 5 μg/mL
Description: SCV-07 was administered to intact wild mice in the form of five daily intra-abdominal injections at dosages of 0.1 and 1.0 μg/kg of body weight. After this, isolation of spleen cells was carried out the cytokine synthesis was induced in the culture by stimulating the cells with concanavalin A at a dosage of 5 μg/mL. The levels of the synthesized cytokines were determined by quantitative immunoenzyme analysis. […] The changes on ConA-induced production of two other [sic] cytokines—IFN-γ and IL-4, as is apparent from FIG. 1, were reciprocal in nature.

pollinosis = assay: Case report: SCV-07 before specific immunotherapy of pollinosis; type: in vivo, human; details: SCV-07 perorally 1.5 mg once a day for 10 days, 15 days before SIT; season April-June 2006
Description: Patient.—P-na M. N., 45 years. Date of first consultation—October 2004. From the end of November 2004 to mid-March 2005, the patient underwent specific immunotherapy (SIT) for pollinosis, using the allergoid (“Puretal-tree”) according to the scheme: subcutaneous once a week, beginning with a single dose of the administered allergoid of 0.025 mL, the subsequent dose are escalated during the course of treatment until reaching a single dose of 0.5 mL (0.025 mL-0.05 mL, −0.1 mL-0.2 mL-0.3 mL-0.4 mL-0.5 mL), and the following does are staying on this dose. Considering the above situation, during October 2005, to increase the clinical effectiveness of SIT, under initiating or anticipatory conditions, immune stimulation—a course of the preparation “SCV-07” —was perorally administered as follows: 1.5 mg once a day daily for 10 days in a row. On completion of the “SCV-07” course, the patient, from the middle of November 2005 through mid-March 2006, underwent another course of SIT for pollinosis, using the allergoid “Puretal-tree” according to the previous scheme. The interval between the “SCV-07” course and the beginning of the SIT course for pollinosis was 15 days.

OVA specific IgG1 = OVA specific IgG1 in serum by ELISA, guinea pig model; type: in vivo, Dunkin-Hartley guinea pigs; details: 1 or 10 ug/kg ip days 17-21
Description: Animals were sensitized on day 0 ip with 50 mg/kg OVA. On Days 17, 18, 19, and 20, animals received an ip injection between 8 and 10 am with PBS, SCV-07 at 1 ug/kg, or SCV-07 at 10 ug/kg (Peptide treatment). Between 8 and 10 a.m. on Day 21, animals were administered peptide 2 hours before OVA or saline (NSS) aerosol challenge. 30 min before OVA or NSS aerosol challenge each animal was injected ip with an antihistamine (6.1 mg/kg pyrilamine maleate) to prevent death due to the anaphylactic response that accompanies aerosol OVA challenge. Animals were exposed to aerosol in pairs with either 1% OVA solution or NSS for 5 min in a plexiglass chamber (22×22×29 cm) using a DeVilbiss Model 35B Ultrasonic Nebulizer. Animals were observed during the total 5 min aerosolization and comments recorded. Within 22-24 hours after challenge, animals were euthanized, bled by cardiac puncture, lavaged and lung lobes removed for measurement of cellular infiltration. At the time of OVA or NSS challenge and euthanasia, animal weights ranged from approximately 350-550 g, with the average weight approximately 420 g. […]
OVA specific IgG1 in serum was determined by ELISA as previously described (Fraser et al., 1998; Regal et al., 2000). The data were expressed as the concentration of OVA specific IgG1 in the sample divided by the concentration of OVA specific IgG1 in the standard, defined as 1. […]

[1] = system: 5-FU-immune-suppressed animals; details: in vivo; cited from earlier work
[2] = in vivo; cited from earlier work

N[C@H](CCC(=O)N[C@@H](Cc1c[nH]c2ccccc12)C(=O)O)C(=O)O [SCV-07, γ-D-glutamyl-L-tryptophan]
Titer IgE BAL, dilution 1:8, % of average of the control group (anti-OvA IgE; 0.1 μg/kg): 59 ± 33 % of average of the control group | Titer IgE of serum, dilution 1:640, % of average of the control group (anti-OvA IgE; 0.1 μg/kg): 86 ± 42 % of average of the control group | Titer IgE BAL, dilution 1:8, % of average of the control group (anti-OvA IgE; 1 μg/kg): 46 ± 24 % of average of the control group | Titer IgE of serum, dilution 1:640, % of average of the control group (anti-OvA IgE; 1 μg/kg): 65 ± 26 % of average of the control group | Titer IgE BAL, dilution 1:32, % of average of the control group (anti-OvA IgE; 0.1 μg/kg): 85 ± 70 % of average of the control group | Titer IgE of serum, dilution 1:400, % of average of the control group (anti-OvA IgE; 0.1 μg/kg): 92 ± 44 % of average of the control group | Titer IgE BAL, dilution 1:32, % of average of the control group (anti-OvA IgE; 1 μg/kg): 101 ± 51 % of average of the control group | Titer IgE of serum, dilution 1:400, % of average of the control group (anti-OvA IgE; 1 μg/kg): 79 ± 46 % of average of the control group | Change in ConA-induced IFN-γ production by the splenocytes (interferon-γ): almost five-fold increase | Seasonal rhinoconjunctival symptoms after SIT preceded by SCV-07 course (pollinosis): seasonal rhinoconjunctival symptoms were virtually absent | Concentration of OVA specific IgG1 antibody in the serum (OVA specific IgG1): did not significantly affect | Effect on 5-FU-immune-suppressed animals [1]: strong immunostimulatory effect | Non-toxic dose as multiple of the employed doses [2]: ≥ 100,000 times
